In patent US20230093131A1, “ASSESSING AND TREATING ALCOHOL-ASSOCIATED LIVER DISEASE” (Mayo Foundation for Medical Education and Research, priority 2020, published 2023):
“Also recorded” adds a separate entry of the source.

What was measured:
[1] = tested on: alcohol fed/LPS C57BL/6 mice; experiment: Murine chronic alcohol feeding/LPS model with iBET151; assay type: in vivo, mouse
Procedure: FIG. 23: Bromodomain Inhibitor iBET151 Attenuates Liver CXCL Production and Neutrophil Infiltration in a Murine Alcohol Feeding/LPS Model. A) Schematic of alcohol feeding protocol. Mice were fed 5% alcohol diet or pair-fed control diet for 10 days. A subset of mice also received IP injection of iBET151 compound. Alcohol fed mice also received IP injection of LPS on day 11, 8 hours before sacrifice (n=6-8 in pair-fed groups, n=12-14 in alcohol fed groups). […] This response was attenuated by iBET151 injections. Expression levels were normalized to average expression of pair-fed control mice. C) IHC for MPO (neutrophil marker) is shown, with number of neutrophils per low power fields on y-axis. […] For all analysis, two-way ANOVA was performed on normalized expression values for qPCRs or cell counts for IHC staining or ALT values, with Post-hoc Tukey's multiple comparisons correction.
WT C57BL/6 mice (10-12 weeks) were purchased from Envigo Laboratories. Mice were subjected to chronic alcohol feeding to induce alcohol-induced liver injury with modification to the NIAAA model (see, e.g., Kong et al., Sci. Rep., 7(1):9292 (2017)). Briefly, mice were acclimated to liquid diet for 5 days, and were fed either 5% alcohol containing liquid diet or isocaloric pair-fed control diet. On Day 11, LPS (Invivogen tlrl-eblps) was intraperitoneally (IP) injected at 4 mg/kg to alcohol-fed mice. PBS of the same volume was given to pair-fed mice. All mice were sacrificed 8 hours later. A subset of mice, concurrent with alcohol or pair-feeding, was given injection of iBET151 daily. Mice were injected IP with iBET151 (6 mg/kg) in 10% Kleptose 2% DMSO solution or equal volume of carrier solution. On Day 11, drug or vehicle was administered 1 hour before LPS injection.
To generate an in vivo model with more exaggerated inflammation that could simulate human AH, a protocol of the chronic alcohol feeding model was modified by substituting the alcohol binge with a single LPS injection (FIG. 23A; see, also, Kong et al., Sci. Rep., 7(1):9292 (2017)). […] There was a significant increase in serum alanine aminotransferase (ALT) in alcohol fed/LPS mice (FIG. 23D). To assess the role of super enhancer activation in alcohol fed/LPS induced liver inflammation, the pan-BET inhibitor iBET151 was given to mice as daily IP injections alongside alcohol feeding or LPS injection.

LSEC CXCL expression = experiment: CXCL expression (qPCR) in LSECs pretreated with inhibitor, with or without TNFα stimulation; assay type: cell-based, human
Procedure: A) LSECs were pretreated with iBET151 (0-50 M) (n=4). CXCL1, 6, and 8 expression levels were assessed by qPCR. Expression levels were normalized to basal condition and log10 fold change values were plotted. One-way matched-pairs ANOVA analysis was performed with Post-hoc Dunnett's multiple comparison correction.
LSECs were pretreated with iBET151 (0-50 M) (n=4). CXCL2, 3, and 5 expression levels were assessed by qPCR. Expression levels were normalized to basal condition and log10 fold change values were plotted. One-way matched-pairs ANOVA analysis was performed with Post-hoc Dunnett's multiple comparison correction. Error bars indicate SD.
Primary human LSECs were purchased from ScienCell (Cat #5000) and cultured using standard cell culture techniques. Where appropriate, LSECs underwent TNFα (Peprotech, 300-01A) stimulation at 20 ng/mL. For experiments with BRD4 inhibitor, iBET151 (Cayman Chemical 11181), low passage LSECs were plated at 70% confluency and cultured overnight. Next, LSECs were serum starved for 2 hours in low serum medium (0.5% FBS in basal endothelial medium (Lonza CC-3121)). Inhibitors were added at concentrations indicated to low-serum medium, and cells were incubated in inhibitor containing medium for 2 hours. After inhibitor treatment, medium change was performed with TNFα (Peprotech 300-01A) at 20 ng/mL or control low-serum medium for 90 minutes incubation. LSECs were then collected for analysis. […] RNA was extracted and qPCR performed for expression of CXCLs.

BRD4 = target: T1, BRD4 (Homo sapiens, UniProt O60885); experiment: ChIP-qPCR for BRD4 binding at CXCL super enhancer and CXCL1 promoter sites in LSECs; assay type: cell-based; details: with and without TNFα, after inhibitor pretreatment, FIG. 20B, 20E
T1 construct: Soluble chromatin was aliquoted and immunoprecipitated with magnetic beads with antibodies for BRD4 (Abcam ab128874); host or cells: primary human liver sinusoidal endothelial cells (LSECs)
Procedure: B and C) ChIP-qPCR assays for BRD4 binding (B) or NF-κB binding (C) with and without TNFα stimulation was assessed at CXCL super-enhancer and CXCL1 promoter sites after pretreatment with iBET151. D and E) Same experiments were repeated with Celastrol. Enrichment for either CXCL1 promoter (Promoter) or CXCL super enhancer (Super Enhancer) sequence was examined. Sequence enrichment was normalized to input. Box plots show top quartiles and third quartiles; whiskers show maximum and minimum values. Two-way matched-pairs ANOVA was performed on log-transformed input percentage, with Post-hoc Sidak's multiple comparisons correction (n=3).
LSECs were treated with appropriate conditions as outlined separately, and underwent CHIP according to Millipore High-Sens ChIP kit (Millipore MAGNA0025) manufacture protocols. Briefly, cells were crosslinked with formaldehyde (1% final concentration) followed by glycine treatment (100 mM) for 5 minutes each. Cells were washed, collected, and pelleted with centrifugation, and were then lysed with cell lysis buffer. Cells were repelleted and underwent nuclear lysis with provided nuclear lysis buffer, and DNA was sheared with ultrasonification. Soluble chromatin was aliquoted and immunoprecipitated with magnetic beads with antibodies for BRD4 (Abcam ab128874), NF-κB (Cell signaling 8242S), or H3K9me3 (Abcam ab8898) with appropriate isotype controls. […]

[2] = tested on: BET proteins (BRD2, 3, 4 and T); details: Seal et al., Bioorg. Med. Chem. Lett. 2012; cited from earlier work
NF-κB = experiment: ChIP-qPCR for NF-κB binding at CXCL super enhancer and CXCL1 promoter sites in LSECs; assay type: cell-based, human; details: with and without TNFα, after inhibitor pretreatment, FIG. 20C, 20D
Procedure: FIG. 20: Bromodomain inhibitors suppress expression of CXCLs by inhibition of transcription factor binding at CXCL super enhancer and promoter sites. A) LSECs were pretreated with iBET151 ([…]) (n=4). CXCL1, 6, and 8 expression levels were assessed by qPCR. Expression levels were normalized to basal condition and log10 fold change values were plotted. One-way matched-pairs ANOVA analysis was performed with Post-hoc Dunnett's multiple comparison correction. B and C) ChIP-qPCR assays for BRD4 binding (B) or NF-κB binding (C) with and without TNFα stimulation was assessed at CXCL super-enhancer and CXCL1 promoter sites after pretreatment with iBET151. D and E) Same experiments were repeated with Celastrol. Enrichment for either CXCL1 promoter (Promoter) or CXCL super enhancer (Super Enhancer) sequence was examined. Sequence enrichment was normalized to input. Box plots show […] quartiles and third quartiles; whiskers show maximum and minimum values. Two-way matched-pairs ANOVA was performed on log-transformed input percentage, with Post-hoc Sidak's multiple comparisons correction (n=3).
LSECs were treated with appropriate conditions as outlined separately, and underwent CHIP according to Millipore High-Sens ChIP kit (Millipore MAGNA0025) manufacture protocols. […]

LSECs = experiment: iBET151 LSEC cytotoxicity assay (IncuCyte); assay type: cell-based, human; details: iBET151 and/or TNFα, ~30 minute intervals for 10 hours, FIG. 22
Procedure: FIG. 22: iBET151 LSEC cytotoxicity assay. IncuCyte system was utilized to image cells and assess for cytotoxicity. Dying cells (black arrows) are stained green by fluorescent dye, and green cells are counted for each low power image field. Cells were pretreated with control medium or iBET151 and/or TNFα, and quantification for the percentage of dead cells was done at ˜30 minutes intervals for 10 hours starting at 15 minutes. Images shown were acquired after 4 hours of incubation. […] Error bars indicate SD, n=3.

[3] = tested on: S1P receptors on primary human macrophages; experiment: EV-activated macrophage inflammation (AH EVs on PBMC-derived macrophages); assay type: cell-based
Procedure: FIG. 14: EV-activated macrophage inflammation is SIP-dependent. A) TNF-α and B) IL-1β responses in primary human macrophages from AH subjects treated with EVs derived from HD (HD EV) or AH (AH EV) for 4 hours showing a significant increase in both cytokines by AH-EVs.
PBMC-derived macrophages were treated with EVs derived from HD or AH subjects.

AH patients = experiment: EV counts in AH patients after IL-22 treatment; assay type: in vivo, human
Description: (§1) IL-22 is being investigated as a potential therapy in AH due to its hepatoprotective effects. To investigate if IL-22 can inhibit ethanol-induced EV release, HepG2Cyp2E1 (human hepatoma cells that can metabolize ethanol due to the enforced expression of cytochrome P450 2E1) cells were pretreated with IL-22 prior to the addition of ethanol. Subsequently, EVs were isolated from cell culture supernatants by UTC and quantified with NTA. Similarly, IL-22 reduced EV counts in AH patients after treatment.

HepG2Cyp2E1 cells = experiment: Ethanol-induced EV release from HepG2Cyp2E1 cells (UTC isolation, NTA count); assay type: cell-based, human; details: HepG2Cyp2E1 cells pretreated with IL-22 prior to ethanol
Description: as §1

[4] = alcohol fed/LPS mice, iBET151 6 mg/kg IP daily, FIG. 23B

Molecule: COc1cc2c(cc1-c1c(C)noc1C)ncc1[nH]c(=O)n([C@H](C)c3ccccn3)c12 [iBET151]
- cleaved caspase 3 level in liver (Western blot) ([1]; alcohol fed/LPS mice given iBET151, FIG. 26A): decrease; also recorded: attenuated
- hepatic expression of Cxcl1 (qPCR) [1, 4]: significantly decreased
- hepatic expression of Cxcl2 (qPCR) [1, 4]: significantly decreased
- neutrophil infiltration of the liver (Ly6g expression, MPO IHC) ([1]; alcohol fed/LPS mice, iBET151 6 mg/kg IP daily, FIG. 23B, 23C): decreased
- steatosis (BODIPY 493/503 stain) ([1]; alcohol fed/LPS mice, iBET151 6 mg/kg IP daily, FIG. 25, 6 mg/kg): decreased; also recorded: attenuated
- liver CXCL chemokine production/elevation (qPCR) ([1]; alcohol feeding and LPS injection, IP iBET151, figure legends FIG. 19, FIG. 23B): attenuated
- neutrophil marker Ly6g (qPCR) ([1]; alcohol/LPS mice, IP iBET151, figure legends FIG. 19, FIG. 23B): reduced; also recorded: attenuated
- Malondialdehyde (MDA), lipid peroxidation, in mice livers ([1]; pair-fed or EtOH+LPS, vehicle or iBET151, FIG. 26B): no difference among treatment groups
- 8-Hydroxy-2′-deoxyguanosine (8-OHdG), DNA oxidation, in mice livers ([1]; pair-fed or EtOH+LPS, vehicle or iBET151, FIG. 26C): no difference among treatment groups
- CXCL expression after TNFα stimulation (LSEC CXCL expression; HHSEC pretreated with varying amounts of iBET151, FIG. 18): suppresses
- CXCL2, 3, 5 expression (qPCR) (LSEC CXCL expression; LSECs pretreated with iBET151 (0-50 M), with TNFα and without TNFα, FIG. 21): linear trend for decreasing
- LSEC CXCL expression (LSEC CXCL expression; in vitro, in the presence of iBET151, FIG. 20A, 21A, iBET151 0-50 M, TNFα 20 ng/mL): significantly decreased
- BRD4 occupancy/binding at CXCL super enhancer and CXCL1 promoter sites (ChIP) (BRD4): inhibitory effect
- activity against both bromodomains (BD) of all four BET proteins [2]: highly specific activity
- NF-κB binding at CXCL super enhancer and CXCL1 promoter sites (ChIP) (NF-κB): trend for decreased
- cytotoxicity (percentage of dead cells) (LSECs): without significant cytotoxicity; also recorded: no significant difference among treatment groups

Molecule: CCCCCCCCc1ccc(CCC(N)(CO)CO)cc1 [FTY720]
- AH EV-activated proinflammatory signaling in macrophages ([3]; PBMC-derived macrophages treated with AH EVs): significantly inhibited
- TNF-α response to AH EVs ([3]; primary human macrophages from AH subjects, EVs for 4 hours, FTY 720 1 μM, FIG. 14A): significantly reduced
- IL-1β response to AH EVs ([3]; primary human macrophages from AH subjects, EVs for 4 hours, FTY 720 1 μM, FIG. 14B): significantly reduced

B1: IL-22: IL-22 polypeptide, hepatoprotective cytokine investigated as potential therapy in AH (protein, UniProt Q9GZX6 34-179, looked up)
Interleukin-22: APISSHCRLDKSNFQQPYITNRTFMLAKEASLADNNTDVRLIGEKLFHGVSMSERCYLMKQVLNFTLEEVLFPQSDRFQPYMQEVVPFLARLSNRLSTCHIEGDDLHIQRNVQKLKDTVKKLGESGEIKAIGELDLLFMSLRNACI
- EV counts in AH patients (AH patients): reduced
- ethanol-induced EV release (HepG2Cyp2E1 cells): significantly inhibited
